This is an account of results in article PMC5041982, “Small-molecule inhibition of STAT3 in radioresistant head and neck squamous cell carcinoma” (Oncotarget, 2016).

Series [1] in a line: Tumor PK (tumor vs plasma level) in nude mice bearing xenograft tumors. Format: in vivo. To be noted: 10 mg/Kg IP, mouse, 1 hr following IP dose. The method, then: PK studies to assess tumor vs. plasma levels of C188-9 were performed in nude mice bearing xenograft tumors. Details regarding these studies are in the Supplemental Methods.
For the tumor accumulation study, 3x106, MDA- 5. Bharadwaj U, Eckols TK, Kolosov M, Kasembeli MM, MB 468 cells were sub-cutaneously injected on left flank Adam A, Torres D et al. Drug-repositioning screening of Nude (Athymic NCr-nu/nu) mice and allowed to grow identified piperlongumine as a direct STAT3 inhibitor with till 500 mm3 and then the mice were randomized into two potent activity against breast cancer. Oncogene 2014; 0.
The Control mice (n =2) were sacrificed after their tumor et al. Inhibition of 1-deoxy-D-xylulose-5-phosphate reached 500 mm3 and the mice in the treatment group reductoisomerase by lipophilic phosphonates: SAR, […]
was administered and mice were sacrificed an hour later. 7. Halling DB, Georgiou DK, Black DJ, Yang G, Fallon JL, Plasma and tumors were harvested as described before, Quiocho FA et al. Determinants in CaV1 channels that snap frozen and shipped to Apredica for analysis. regulate the Ca2+ sensitivity of bound calmodulin. J Biol […]
Plasma samples were processed with 3 volumes 8. Kim BK, Lee JW, Park PJ, Shin YS, Lee WY, Lee KA et of methanol containing internal standard. Samples were al. The multiplex bead array approach to identifying serum then centrifuged to remove precipitated protein, and the biomarkers associated with breast cancer. Breast Cancer supernatant was analyzed by LC/MS-MS. All plasma Res 2009; 11: R22. samples were compared to a calibration curve prepared 9. Kim JK, Xu Y, Xu X, Keene DR, Gurusiddappa S, Liang in mouse blank plasma. Tumor samples were first X et al. A Novel Binding Site in Collagen Type III for homogenized in 1 ml of PBS per gram of tumor tissue and Integrins {alpha}1{beta}1 and {alpha}2{beta}1. J Biol then processed in the same manner as the plasma samples. Chem 2005; 280: 32512-32520.
Tumor samples were quantified using a calibration curve 10. Li RW, Schroeder SG. Cytoskeleton remodeling and prepared in control tumor. alterations in smooth muscle contractility in the bovine Samples were analyzed by LC/MS/MS using an jejunum during nematode infection. Funct Integr Genomics Agilent 6410 mass spectrometer coupled with an Agilent 2012; 12: 35-44.
1200 HPLC and a CTC PAL chilled autosampler, all 11. Shao H, Xu X, Mastrangelo M-AA, Jing N, Cook RG, controlled by MassHunter software (Agilent). After Legge GB et al. Structural Requirements for Signal separation on a C18 reverse phase HPLC column (e.g. Transducer and Activator of Transcription 3 Binding to Zorbax Eclipse 2.1mmx50mm or Zorbax Poroshell Phosphotyrosine Ligands Containing the YXXQ Motif. J […]
acetonitrile-water gradient system, peaks were analyzed 12. […]

For another series, the system named is UM-SCC-17B cells. Briefly: Anchorage dependent growth (MTT). To be noted: Homo sapiens, 48 hrs. The series is classed as cell-based. The method, then:
GAPDH-normalized pSTAT3 or pSTAT1 values were divided by that for untreated cells and expressed in percentage. These values were plotted as a function of Log [M] compound, and IC50 values calculated using GraphPad. […] Viable cells quantitated using MTT. Relative % viability was measured by (viability after any treatment ÷ viability of untreated cells × 100) and plotted as a function of Log [M] […] C. […] Representative curves are shown.
Cells were cultured in triplicates in complete DMEM ± drug, in ultra-low attachment 96 well plates for 72 hrs or cell-culture treated plates for 48 hrs and viable cells were quantitated using MTT. Optical density (OD) was measured at 590 nm using a 96-well multi-scanner (EL-800 universal microplate reader, BioTek Inc, VT, USA). Relative % viability (viability after any treatment ÷ viability of untreated cells × 100) was plotted along Y-axis. At least 2 replicates experiments were performed and were used for IC50 calculation using GraphPad software.

Series [2] in a line: Plasma PK in mice, IP and oral. The note with it: C57BL/6, mouse. The series is classed as in vivo, C57BL/6 mice.
The nature of series [3]: GLP-compliant safety study in rats. The note with it: 28 days, data not shown.
A short description of a further series: Log P. Format: physicochemical.

The structures appear in SMILES notation. Several values for one entry are separate records, joined by “and”; a condition that tells them apart may be missing. Identical values can stand only once. Like-named read-outs stand apart in the source and are kept apart here.

`COc1ccc(S(=O)(=O)Nc2cc(-c3c(O)ccc4ccccc34)c(O)c3ccccc23)cc1` [Compound C188-9]: in series [1], the Plasma level is 1.9 mg/ml and 4.0 μM. The Tumor level in series [1] is 5.0 mg/ml and 10.4 μM. In series [1], the “Tumor: Plasma ratio” value came out at 2.6. The Kp at 1 h in series [1] (Nude (Athymic NCr-nu/nu), tumor/plasma, intraperitoneal, 10 mg/Kg, read-out: Tumor: Plasma ratio) is around 3. Moreover, the 50% inhibitory concentration (IC50) is 3200 ± 600 nM in the series with UM-SCC-17B cells (mean, read-out: Anchorage dependent growth (MTT) IC50) and 2700 nM in the series with UM-SCC-17B cells (Figure 4B, read-out: Anchorage Dependent growth IC50, representative experiment). The AUC in series [2] (10 mg/Kg IP, read-out: Area under the curve (AUC), IP) was found to be 12500 ng·h/mL; in series [2] (10 mg/Kg oral, read-out: Area under the curve (AUC), oral), 12500 ng·h/mL. In addition, in series [3], the “Dose with no clinical, laboratory, or pathological abnormalities” value is at most 200 mg/kg/d. The lipophilicity (logP) in “Log P” came to 5.2.

The term IC50 denotes the concentration needed to halve the response being measured. What is called AUC is concentration integrated over time. Usually logP stands for the decadic logarithm of the partition coefficient of the neutral form, usually between octanol and water. A high value points to a more lipophilic compound.
